Laboratory results from patent US20260226062A1, “COMPOSITIONS USEFUL FOR MODULATING SPLICING” (Skyhawk Therapeutics, Inc., priority 2023, published 2026).

Test system: ATXN3 pre-mRNA
Test: ATXN3 Quantitative Splicing Assay (qPCR, E4E5 primers/probe detecting transcripts containing exon 4)
Assay type: cell-based
Details: Human neuroblastoma SK-N-MC cells, 24 h treatment, qPCR of transcripts containing exon 4; read-out: ATXN3 Potency - Splicing: ATXN3 E4E5 IC50
Description: Human neuroblastoma SK-N-MC cells were plated in 384-well plates at 20,000 cells/well. Twenty-four hours after plating, cells were treated with compounds for 24 h at appropriate concentrations ranging from 30 μM to 0.6 nM (0.3% DMSO). Treated cells were lysed in 15 μL of lysis buffer, and cDNA was synthesized using the Fast Advanced Cells-to-Ct kit. Two μL of each cDNA was used in qPCR reactions to confirm the exon 4 skipped transcripts of ATXN3. A second set of primers/probe E4E5 was used to detect the transcripts containing exon 4. The third set of primers/probe E8E9 was used to detect total gene level of ATXN3. The qPCR reactions were prepared in 384-well plates in 10 μL volume, using TaqMan™ Fast Advanced Master Mix with primers and probes shown in the table below. Reactions were run in a Quant Studio 6 qPCR instrument with default settings.
The primers and probes are listed below in Table 3.

Q: `C[C@H](F)[C@H](N)Cc1cc2c(NCc3ccsn3)nc(Cl)nn2c1Br` [Compound 8, 6-((2R,3S)-2-amino-3-fluorobutyl)-7-bromo-2-chloro-N-(isothiazol-3-ylmethyl)pyrrolo[2,1-f][1,2,4]triazin-4-amine] was tested. Which IC50 did it give?
A: 0.01 to 100 nM

Q: Which IC50 does the source give for `Cc1c(C[C@@H](N)[C@H](C)F)cc2c(NCc3ncco3)nc(Cl)nn12` [Compound 2, 6-((2R,3S)-2-amino-3-fluorobutyl)-2-chloro-7-methyl-N-(oxazol-2-ylmethyl)pyrrolo[2,1-f][1,2,4]triazin-4-amine] here?
A: 501 to 5000 nM

Q: For `Cc1c(C[C@@H](N)[C@H](C)F)cc2c(NCc3ccon3)nc(Cl)nn12` [Compound 9, 6-((2R,3S)-2-amino-3-fluorobutyl)-2-chloro-N-(isoxazol-3-ylmethyl)-7-methylpyrrolo[2,1-f][1,2,4]triazin-4-amine], which IC50 is on record?
A: 501 to 5000 nM

Q: `Cc1c(C[C@@H](N)[C@H](C)F)cc2c(NCc3ccsn3)nc(Cl)nn12` [Compound 10, 6-((2R,3S)-2-amino-3-fluorobutyl)-2-chloro-N-(isothiazol-3-ylmethyl)-7-methylpyrrolo[2,1-f][1,2,4]triazin-4-amine] was tested. Which IC50 did it give?
A: 101 to 500 nM

Q: For `C[C@H](F)[C@H](N)Cc1cc2c(NCc3nccs3)nc(Cl)nn2c1Cl` [Compound 5, 6-((2R,3S)-2-amino-3-fluorobutyl)-2,7-dichloro-N-(thiazol-2-ylmethyl)pyrrolo[2,1-f][1,2,4]triazin-4-amine], which IC50 is on record?
A: 101 to 500 nM

Q: `C[C@H](F)[C@H](N)Cc1cc2c(NCc3nccs3)nc(Cl)nn2c1Br` [Compound 3, 6-((2R,3S)-2-amino-3-fluorobutyl)-7-bromo-2-chloro-N-(thiazol-2-ylmethyl)pyrrolo[2,1-f][1,2,4]triazin-4-amine] was tested. Which IC50 did it give?
A: 101 to 500 nM

Q: For `C[C@H](F)[C@H](N)Cc1cc2c(NCc3ccon3)nc(Cl)nn2c1Br` [Compound 7, 6-((2R,3S)-2-amino-3-fluorobutyl)-7-bromo-2-chloro-N-(isoxazol-3-ylmethyl)pyrrolo[2,1-f][1,2,4]triazin-4-amine], which IC50 is on record?
A: 101 to 500 nM

Q: `C[C@H](F)[C@H](N)Cc1cc2c(NCc3ncco3)nc(Cl)nn2c1Cl` [Compound 6, 6-((2R,3S)-2-amino-3-fluorobutyl)-2,7-dichloro-N-(oxazol-2-ylmethyl)pyrrolo[2,1-f][1,2,4]triazin-4-amine] was tested. Which IC50 did it give?
A: 101 to 500 nM

Q: `C[C@H](F)[C@H](N)Cc1cc2c(NCc3ncco3)nc(Cl)nn2c1Br` [Compound 1, 6-((2R,3S)-2-amino-3-fluorobutyl)-7-bromo-2-chloro-N-(oxazol-2-ylmethyl)pyrrolo[2,1-f][1,2,4]triazin-4-amine] was tested. Which IC50 did it give?
A: 101 to 500 nM

Q: How did the IC50 turn out when `Cc1c(C[C@@H](N)[C@H](C)F)cc2c(NCc3nccs3)nc(Cl)nn12` [Compound 4, 6-((2R,3S)-2-amino-3-fluorobutyl)-2-chloro-7-methyl-N-(thiazol-2-ylmethyl)pyrrolo[2,1-f][1,2,4]triazin-4-amine] was run?
A: 101 to 500 nM
